Experimental data reported in patent US8546579B2, “Bicycloheteroaryl compounds as P2X7 modulators and uses thereof” (Evotec (US) Inc., priority 2006, dated 2013).

Target: T1, P2X7 receptor (Homo sapiens, UniProt Q99572)
T1 construct: host or cells: THP-1 cells differentiated with LPS and IFN-γ
T1 sequence (Q99572 1-595): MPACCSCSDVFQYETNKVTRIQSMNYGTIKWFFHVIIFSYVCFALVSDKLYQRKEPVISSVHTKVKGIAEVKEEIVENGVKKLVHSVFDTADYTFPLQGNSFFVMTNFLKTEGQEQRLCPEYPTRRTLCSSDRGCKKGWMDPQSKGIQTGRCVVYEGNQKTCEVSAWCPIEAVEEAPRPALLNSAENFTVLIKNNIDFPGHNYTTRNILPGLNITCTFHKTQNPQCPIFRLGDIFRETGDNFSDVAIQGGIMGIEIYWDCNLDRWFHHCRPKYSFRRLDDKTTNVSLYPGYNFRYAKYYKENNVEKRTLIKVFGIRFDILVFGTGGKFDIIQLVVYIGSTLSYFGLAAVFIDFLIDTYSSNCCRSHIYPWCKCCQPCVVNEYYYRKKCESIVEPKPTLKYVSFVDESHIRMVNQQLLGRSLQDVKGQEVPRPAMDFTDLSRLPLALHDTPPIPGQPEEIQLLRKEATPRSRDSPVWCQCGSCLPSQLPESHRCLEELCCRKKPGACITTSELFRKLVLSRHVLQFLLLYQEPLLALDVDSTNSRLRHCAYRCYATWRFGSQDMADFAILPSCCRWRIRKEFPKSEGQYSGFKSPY
Assay: IL-1β release assay in differentiated THP-1 cells stimulated with BzATP (Example 9)
Assay type: cell-based
Settings: 0.1 μM compound; differentiated THP-1 cells, BzATP 250 uM; '*' class symbols; read-out: IL-1β % Inhib. (asterisk classes, 0.1 μM)
Description: THP-1 cells (ATCC Cat # 285-IF-100) are plated in 96 well plates at a concentration of 200,000 cells per well and allowed to differentiate in RPMI-1640 media (ATCC Cat # 30-2001) containing 10% FBS, 100 IU/mL penicillin, 100 ug/mL streptomycin, 100 ng/mL LPS and 100 ng/mL IFN-γ for 16 hours. Following differentiation, the cells are treated for an additional 2 hours in RPMI-1640 media containing 100 IU/mL penicillin, 100 ug/mL streptomycin and fresh LPS at 100 ng/mL. The cells are then pretreated for 30 minutes with the compound of interest at the appropriate concentration in RPMI media containing 100 IU/mL penicillin, 100 ug/mL streptomycin. Following the pretreatment 2′,3′-O-(4-benzoylbenzoyl)-adenosine 5′-triphosphate (Sigma Aldrich Cat # B6396) is added to a final concentration of 250 uM and the cells are incubated for an additional 45 minutes. 30 uL of cell supernatant is then collected and IL-1β levels determined via ELISA (R&D systems Cat. # HSLB50) according to manufacturer's recommendations using the Tecan Safire plate reader. Background adjusted IL-1β levels of drug treated and non-treated cells are used to calculate the percent inhibition.
The compounds set forth in Table 1 were tested for activity in a cellular model as described herein. Specifically, cells were pretreated with differing amounts of the compound under test and released IL-1β determined as in Example 9, above. Measurements were made and IC50 values, presented in Table 2, below, were determined by fitting the data to a four parameter logistic equation using GraphPad Prism software (GraphPad Software, Inc). The equation may be expressed by the following formula: Y=Bottom+(Top−Bottom)/(1+10^((Log EC50−X)*HillSlope)) Where X is the logarithm of concentration, Y is the response and Y starts at Bottom and goes to Top with a sigmoid shape.

inhibition at 0.1 µM [%]	SMILES
0 to 25	Cc1ccccc1CCC(=O)Nc1cccc2c(=O)n(C)ccc12 [Compound 1057]
0 to 25	CCOc1ccc(C(=O)Nc2cccc3c(=O)n(CCOC)ccc23)c(O)c1 [Compound 1059]
26 to 50	COCCn1ccc2c(NC(=O)CCc3ccccc3C)cccc2c1=O [Compound 1062]
0 to 25	COCCn1ccc2c(NC(=O)c3ccc(-c4ccccc4)o3)cccc2c1=O [Compound 1063]
0 to 25	COCCn1ccc2c(NC(=O)CCc3cccc(OC)c3)cccc2c1=O [Compound 1064]

Same assay, conditions: 0.3 μM compound; differentiated THP-1 cells, BzATP 250 uM; '+' class symbols; read-out: IL-1β % Inhib. @ 0.3 μM

SMILES	inhibition at 0.3 µM [%]
CC(C)(C)Cn1ccc2c(NC(=O)CCc3ccc4c(c3)OCO4)cccc2c1=O [Compound 1055]	0 to 25
Cc1cc(C(=O)Nc2cccc3c(=O)n(CC(C)(C)C)ccc23)ccc1Cl [Compound 1056]	0 to 25
COc1cccc(CCC(=O)Nc2cccc3c(=O)n(C)ccc23)c1 [Compound 1058]	0 to 25
COCCn1ccc2c(NC(=O)c3ccc(OC)cc3C)cccc2c1=O [Compound 1060]	0 to 25
COCCn1ccc2c(NC(=O)C3CCC(C)CC3)cccc2c1=O (stereo not drawn) [Compound 1061]	0 to 25
COCCn1ccc2c(NC(=O)Cc3c(C)cc(C)cc3C)cccc2c1=O [Compound 1065]	0 to 25
COCCn1ccc2c(NC(=O)Cc3cc(C)ccc3C)cccc2c1=O [Compound 1066]	0 to 25
COCCn1ccc2c(NC(=O)c3ccc(OC)c(Cl)c3)cccc2c1=O [Compound 1067]	26 to 50
CCOc1cccc(C(=O)Nc2cccc3c(=O)n(CCOC)ccc23)c1 [Compound 1068]	0 to 25
COCCn1ccc2c(NC(=O)CCc3ccccc3Cl)cccc2c1=O [Compound 1069]	≥ 76
COCCn1ccc2c(NC(=O)CCc3ccc4c(c3)OCO4)cccc2c1=O [Compound 1070]	0 to 25
COCCn1ccc2c(NC(=O)c3ccc(Cl)c(C)c3)cccc2c1=O [Compound 1071]	0 to 25

Continued, values first:

inhibition at 0.3 µM [%]	SMILES
0 to 25	CCOc1ccc(C(=O)Nc2cccc3c(=O)n(Cc4cccnc4)ccc23)c(O)c1 [Compound 1072]
0 to 25	COc1ccc(C(=O)Nc2cccc3c(=O)n(Cc4cccnc4)ccc23)c(C)c1 [Compound 1073]
0 to 25	O=C(Nc1cccc2c(=O)n(Cc3cccnc3)ccc12)c1ccc(-c2ccccc2)o1 [Compound 1074]
0 to 25	COc1cccc(CCC(=O)Nc2cccc3c(=O)n(Cc4cccnc4)ccc23)c1 [Compound 1075]
0 to 25	Cc1cc(C)c(CC(=O)Nc2cccc3c(=O)n(Cc4cccnc4)ccc23)c(C)c1 [Compound 1076]
0 to 25	Cc1ccc(C)c(CC(=O)Nc2cccc3c(=O)n(Cc4cccnc4)ccc23)c1 [Compound 1077]
0 to 25	COc1ccc(C(=O)Nc2cccc3c(=O)n(Cc4cccnc4)ccc23)cc1Cl [Compound 1078]
0 to 25	O=C(CCc1ccccc1Cl)Nc1cccc2c(=O)n(Cc3cccnc3)ccc12 [Compound 1079]
0 to 25	O=C(CCc1ccc2c(c1)OCO2)Nc1cccc2c(=O)n(Cc3cccnc3)ccc12 [Compound 1080]
0 to 25	Cc1cc(C(=O)Nc2cccc3c(=O)n(Cc4cccnc4)ccc23)ccc1Cl [Compound 1081]
26 to 50	O=C(Nc1cccc2c(=O)n(CC3CCOCC3)ccc12)c1ccccc1Cl [Compound 1082]
0 to 25	O=C(Nc1cccc2c(=O)n(CC3CCOCC3)ccc12)c1ccc(Cl)cc1Cl [Compound 1083]
0 to 25	O=C(Nc1cccc2c(=O)n(CC3CCOCC3)ccc12)c1cc(Cl)ccc1Cl [Compound 1084]
0 to 25	Cc1ccccc1C(=O)Nc1cccc2c(=O)n(CC3CCOCC3)ccc12 [Compound 1085]
0 to 25	Cc1cccc(C(=O)Nc2cccc3c(=O)n(CC4CCOCC4)ccc23)c1C [Compound 1086]
0 to 25	Cc1ccc(C(=O)Nc2cccc3c(=O)n(CC4CCOCC4)ccc23)c(C)c1 [Compound 1087]
